Assays:
ALK(h) = ALK(h) (Homo sapiens, UniProt Q9UM73); assay: Protein kinase inhibition assay; format: biochemical; details: read-out: percent residual activity of ALK(h)
Protocol: (§1) Certain compounds were tested for activity in protein kinase inhibition assays. All substrates were dissolved and diluted to working stocks in de-ionized water, apart from histone H1 (10× working stock in 20 mM MOPS pH 7.0), PDKtide (10× working stock in 50 mM Tris pH 7.0) ATF2 (which is typically stored at a 20× working stock in 50 mM Tris pH 7.5, 150 mM NaCl, 0.1 mM EGTA, 0.03% Brij-35, 50% glycerol, 1 mM benzamidine, 0.2 mM PMSF and 0.1% R-mercaptoethanol), KKLNRTLSFAEPG (SEQ ID NO:203) and RRRLSFAEPG (SEQ ID NO:204) (50 mM HEPES pH 7.4) and GGEEEEYFELVKKKK (SEQ ID NO:205) (20 mM MOPS pH 7.0). All kinases were pre-diluted to a 10× working concentration prior to addition into the assay. The composition of the dilution buffer for each kinase is detailed below.
(§2) In a final reaction volume of 25 μl, ALK (h) (5-10 mU) is incubated with 8 mM MOPS pH 7.0, 0.2 mM EDTA, 250 μM KKKSPGEYVNIEFG (SEQ ID NO:207), 10 mM MgAcetate and [y -33P-ATP] (specific activity approx. 500 cpm/pmol, concentration as required). The reaction is initiated by the addition of the MgATP mix. After incubation for 40 minutes at room temperature, the reaction is stopped by the addition of 5 μl of a 3% phosphoric acid solution. 10 μl of the reaction is then spotted onto a P30 filtermat and washed three times for 5 minutes in 75 mM phosphoric acid and once in methanol prior to drying and scintillation counting.

BTK(h) = BTK(h) (Homo sapiens, UniProt Q06187); assay: Protein kinase inhibition assay; format: biochemical; details: read-out: percent residual activity of BTK(h)
Protocol: as §1
In a final reaction volume of 25 μl, BTK (h) (5-10 mU) is incubated with 8 mM MOPS pH 7.0, 0.2 mM EDTA, 250 μM KVEKIGEGTYGVVYK (SEQ ID NO:211) (Cdc2 peptide), 10 mM MgAcetate and [gamma-33P-ATP] (specific activity approx. 500 cpm/pmol, concentration as required). The reaction is initiated by the addition of the MgATP mix. After incubation for 40 minutes at room temperature, the reaction is stopped by the addition of 5 μl of a 3% phosphoric acid solution. […]

CaMKIV(h) = CaMKIV(h) (Homo sapiens, UniProt Q16566); assay: Protein kinase inhibition assay; format: biochemical; details: read-out: percent residual activity of CaMKIV(h)
Protocol: as §1
In a final reaction volume of 25 μl, CaMKIV (h) (5-10 mU) is incubated with 40 mM HEPES pH 7.4, 5 mM CaCl2, 30 μg/ml calmodulin, 30 μM KKLNRTLSVA (SEQ ID NO:212), 10 mM MgAcetate and [gamma-33P-ATP] (specific activity approx. 500 cpm/pmol, concentration as required). The reaction is initiated by the addition of the MgATP mix. After incubation for 40 minutes at room temperature, the reaction is stopped by the addition of 5 μl of a 3% phosphoric acid solution. […]

FGFR4(h) = FGFR4(h) (Homo sapiens, UniProt P22455); assay: Protein kinase inhibition assay; format: biochemical; details: read-out: percent residual activity of FGFR4(h)
Protocol: as §1
as §2, with “FGFR4” for “ALK”, “10 mM MnCl2, 0.1 mg/ml poly(Glu, Tyr) 4:1,” for “250 μM KKKSPGEYVNIEFG (SEQ ID NO:207),”, “[gamma-33P-ATP]” for “[y -33P-ATP]”, “Filtermat A” for “P30 filtermat”

MAPK2(m) = MAPK2(m) (Mus musculus, UniProt P63085); assay: Protein kinase inhibition assay; format: biochemical; details: read-out: percent residual activity of MAPK2(m)
Protocol: as §1
In a final reaction volume of 25 μl, MAPK2 (m) (5-10 mU) is incubated with 25 mM Tris pH 7.5, 0.02 mM EGTA, 0.33 mg/ml myelin basic protein, 10 mM MgAcetate and [gamma-33P-ATP] (specific activity approx. 500 cpm/pmol, concentration as required). The reaction is initiated by the addition of the MgATP mix. After incubation for 40 minutes at room temperature, the reaction is stopped by the addition of 5 μl of a 3% phosphoric acid solution. 10 μpl of the reaction is then spotted onto a P30 filtermat and washed three times for 5 minutes in 75 mM phosphoric acid and once in methanol prior to drying and scintillation counting.

HCT116 cells = assay: Total (nucleolar) RNA synthesis (3H-uridine incorporation); format: cell-based; set-up: 3H-uridine incorporation, time course: unit of the concentration uncertain
Protocol: Effects of compound A-1 and compound B-1 on DNA synthesis, RNA synthesis and protein synthesis were determined in HCT116 cells. HCT116 cells were plated overnight at 100,000 cells per mL. Next day cells were treated with increasing amounts of either compound A-1 or compound B-1 followed by one hour incubation with BrdU label (from a BrdU Cell proliferation Assay Kit, Calbiochem) to monitor DNA synthesis; […] of ^3H-uridine to monitor total RNA synthesis; […] of ^3H-methionine to monitor protein synthesis or plain media to monitor RNA Polymerase II-dependent RNA synthesis. DNA synthesis was assessed using a BrdU-ELISA (BrdU Cell proliferation Assay Kit, Calbiochem). To measure total RNA synthesis, total RNA from treated cells was isolated with a RNease kit (QIAGEN), levels of total RNA were assessed with Ribogreen reagent (Invitrogen) and the newly synthesized tritiated RNA was measured in a scintillation Counter (Perkin Elmer). To measure effects on protein synthesis, cells were lysed in a RIPA buffer, and total protein was precipitated with 10% TCA on a glass-filters. Newly synthesized tritiated protein was measured in a scintillation Counter (Perkin Elmer). Effects of drugs on […] RNA synthesis were assessed by monitoring levels of a c-myc mRNA, which has a relatively short half-life of approximately 30 minutes, by Taqman qRT-PCR (ABI).

BTK(h), sequence (Q06187 whole entry): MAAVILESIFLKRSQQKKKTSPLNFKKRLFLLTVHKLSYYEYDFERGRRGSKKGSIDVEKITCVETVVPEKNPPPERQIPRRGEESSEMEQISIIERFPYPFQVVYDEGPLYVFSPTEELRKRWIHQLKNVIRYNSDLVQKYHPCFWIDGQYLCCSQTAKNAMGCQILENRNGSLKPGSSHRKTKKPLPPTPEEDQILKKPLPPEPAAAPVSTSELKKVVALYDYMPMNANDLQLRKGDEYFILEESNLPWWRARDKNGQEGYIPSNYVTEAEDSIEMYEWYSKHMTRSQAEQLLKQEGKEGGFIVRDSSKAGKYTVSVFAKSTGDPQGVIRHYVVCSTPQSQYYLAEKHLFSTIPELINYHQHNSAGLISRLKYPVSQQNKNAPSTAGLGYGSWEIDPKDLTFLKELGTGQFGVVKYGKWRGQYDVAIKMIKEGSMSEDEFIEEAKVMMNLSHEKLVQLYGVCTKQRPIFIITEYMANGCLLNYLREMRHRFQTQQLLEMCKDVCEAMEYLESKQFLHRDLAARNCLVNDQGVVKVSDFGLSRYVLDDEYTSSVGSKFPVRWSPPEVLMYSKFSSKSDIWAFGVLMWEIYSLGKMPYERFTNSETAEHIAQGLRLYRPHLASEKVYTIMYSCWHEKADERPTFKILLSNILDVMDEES
MAPK2(m), sequence (P63085 whole entry): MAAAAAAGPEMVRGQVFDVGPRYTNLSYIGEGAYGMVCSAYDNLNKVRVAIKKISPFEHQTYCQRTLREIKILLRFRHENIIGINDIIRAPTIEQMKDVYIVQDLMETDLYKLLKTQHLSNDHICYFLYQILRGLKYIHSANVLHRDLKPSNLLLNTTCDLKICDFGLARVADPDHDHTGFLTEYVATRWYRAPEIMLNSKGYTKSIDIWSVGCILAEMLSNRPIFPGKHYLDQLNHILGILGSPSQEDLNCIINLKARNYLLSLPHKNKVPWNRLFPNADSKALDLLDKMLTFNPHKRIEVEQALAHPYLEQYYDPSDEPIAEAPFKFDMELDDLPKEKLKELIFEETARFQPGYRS
FGFR4(h), sequence (P22455 22-802): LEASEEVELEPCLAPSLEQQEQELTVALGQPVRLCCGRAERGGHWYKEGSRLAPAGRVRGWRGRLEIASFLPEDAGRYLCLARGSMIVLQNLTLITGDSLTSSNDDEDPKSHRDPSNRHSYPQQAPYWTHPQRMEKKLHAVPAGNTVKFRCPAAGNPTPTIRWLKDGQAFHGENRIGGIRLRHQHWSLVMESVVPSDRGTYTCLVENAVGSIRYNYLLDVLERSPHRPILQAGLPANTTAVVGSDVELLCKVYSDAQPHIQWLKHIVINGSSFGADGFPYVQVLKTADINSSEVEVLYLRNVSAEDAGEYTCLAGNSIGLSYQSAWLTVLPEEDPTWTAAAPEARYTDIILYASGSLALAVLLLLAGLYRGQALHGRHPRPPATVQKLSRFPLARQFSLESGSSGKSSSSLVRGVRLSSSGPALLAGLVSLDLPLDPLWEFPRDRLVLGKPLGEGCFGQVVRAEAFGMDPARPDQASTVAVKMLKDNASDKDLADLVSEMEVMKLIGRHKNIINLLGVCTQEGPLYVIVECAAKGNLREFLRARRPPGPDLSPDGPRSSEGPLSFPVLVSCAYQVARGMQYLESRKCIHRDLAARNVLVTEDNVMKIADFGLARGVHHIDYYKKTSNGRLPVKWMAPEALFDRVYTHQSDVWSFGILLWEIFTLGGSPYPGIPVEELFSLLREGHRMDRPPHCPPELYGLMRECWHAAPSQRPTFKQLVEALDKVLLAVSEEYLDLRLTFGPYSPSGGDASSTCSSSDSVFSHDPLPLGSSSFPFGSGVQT
ALK(h), sequence (Q9UM73 19-1620): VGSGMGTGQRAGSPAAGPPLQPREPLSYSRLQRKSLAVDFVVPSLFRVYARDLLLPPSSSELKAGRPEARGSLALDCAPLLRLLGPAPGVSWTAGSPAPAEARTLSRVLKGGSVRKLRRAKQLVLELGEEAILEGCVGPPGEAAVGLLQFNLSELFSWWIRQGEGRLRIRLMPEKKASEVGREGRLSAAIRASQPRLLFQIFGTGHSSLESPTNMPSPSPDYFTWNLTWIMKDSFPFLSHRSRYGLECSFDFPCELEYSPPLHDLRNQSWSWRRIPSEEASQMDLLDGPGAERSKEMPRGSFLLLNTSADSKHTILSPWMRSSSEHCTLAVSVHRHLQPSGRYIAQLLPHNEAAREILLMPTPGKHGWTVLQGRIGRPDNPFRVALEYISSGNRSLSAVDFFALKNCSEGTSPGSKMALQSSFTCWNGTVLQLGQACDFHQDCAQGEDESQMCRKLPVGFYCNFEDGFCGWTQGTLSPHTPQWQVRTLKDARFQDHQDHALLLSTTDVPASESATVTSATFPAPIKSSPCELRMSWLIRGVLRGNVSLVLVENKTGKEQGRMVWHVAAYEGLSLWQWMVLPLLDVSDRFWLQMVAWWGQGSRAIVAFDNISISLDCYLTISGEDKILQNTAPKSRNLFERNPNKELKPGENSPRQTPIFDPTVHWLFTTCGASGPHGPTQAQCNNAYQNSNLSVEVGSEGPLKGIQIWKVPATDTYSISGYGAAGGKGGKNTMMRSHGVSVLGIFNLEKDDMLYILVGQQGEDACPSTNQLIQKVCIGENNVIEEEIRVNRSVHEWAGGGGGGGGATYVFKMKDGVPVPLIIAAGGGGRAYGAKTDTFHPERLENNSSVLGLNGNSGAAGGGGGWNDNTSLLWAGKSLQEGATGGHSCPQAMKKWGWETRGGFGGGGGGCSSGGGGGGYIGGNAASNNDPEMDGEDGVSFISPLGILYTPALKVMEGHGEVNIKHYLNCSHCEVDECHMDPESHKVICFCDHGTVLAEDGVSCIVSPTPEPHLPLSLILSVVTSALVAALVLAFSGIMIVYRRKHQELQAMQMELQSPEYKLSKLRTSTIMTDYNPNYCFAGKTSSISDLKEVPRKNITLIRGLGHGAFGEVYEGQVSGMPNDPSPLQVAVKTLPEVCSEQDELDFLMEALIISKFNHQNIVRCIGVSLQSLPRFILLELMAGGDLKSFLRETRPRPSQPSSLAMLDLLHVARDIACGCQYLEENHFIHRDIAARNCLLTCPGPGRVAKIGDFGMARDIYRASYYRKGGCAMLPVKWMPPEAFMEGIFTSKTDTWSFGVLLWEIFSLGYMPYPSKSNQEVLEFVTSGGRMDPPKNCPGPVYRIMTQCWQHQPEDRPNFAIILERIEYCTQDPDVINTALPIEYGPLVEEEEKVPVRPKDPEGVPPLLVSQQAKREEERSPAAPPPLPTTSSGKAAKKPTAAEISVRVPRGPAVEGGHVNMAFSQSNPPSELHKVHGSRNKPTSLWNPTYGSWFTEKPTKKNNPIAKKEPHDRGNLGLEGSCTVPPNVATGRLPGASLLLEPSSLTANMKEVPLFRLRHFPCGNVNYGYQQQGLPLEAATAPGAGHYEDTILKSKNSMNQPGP

Row | remaining activity at 2.5 µM (ALK(h)) | remaining activity at 2.5 µM (BTK(h)) | remaining activity at 2.5 µM (CaMKIV(h)) | remaining activity at 2.5 µM (FGFR4(h)) | remaining activity at 2.5 µM (MAPK2(m)) | Compound | concentration that significantly reduced nucleolar RNA synthesis (HCT116 cells) | 3H-uridine incorporation, time course (HCT116 cells; 3 (unit uncertain) for 15 min) | 3H-uridine incorporation, time course (HCT116 cells; 10 (unit uncertain) for 30 min)
1 | 69% | 60% | 124% | 112% | 95% | CN1CCCC1CCNC(=O)c1cn2c3c(c(N4CCC(c5cnccn5)C4)c(F)cc3c1=O)Oc1cc3ccccc3cc1-2 (centres unmarked) [Compound A-1] | 1 µM | substantially inhibited | 
2 | 97% | 101% | 122% | 104% | 102% | CC(=O)N1CCN(c2ccc3c(=O)c(C(=O)NCCN4CCCC4)c4n(C)c5ccccc5n4c3n2)CC1 [Compound B-1] | 10 µM |  | substantially inhibited

From US20070117770A1, “Human ribosomal DNA (rDNA) and ribosomal RNA (rRNA) nucleic acids and uses thereof” (Cylene Pharmaceuticals, Inc., priority 2005, published 2007)
